Reference: patent US20230227453A1 (priority 2020, published 2023)

Columns and labels:
5HT2A sensor [1] = type: cell-based
5HT2A sensor [2] = type: cell-based; remark: listed apart in the source
rat cortical neurons = experiment: Neurite Outgrowth Assay (Procedure B); type: cell-based; parameters: key: A: Statistically significant mean increase as a percent of DMSO control at 10 μM or less; B: No statistically significant mean increase as a percent of DMSO control at 10 μM or less; conditions: primary rat neuronal cultures, 72h, vs DMSO control, 10 μM or less
Protocol: Neurite Outgrowth Assay (Procedure B). Pregnant Wistar rats (Janvier; France) were used for the study. They were delivered 6 days before their use. Upon arrival at Neurofit animal facility, they were housed one per cage and maintained in a room with controlled temperature (21-22° C.) and a reversed light-dark cycle (12h/12h; lights on: 17:30-05:30; lights off: 05:30-17:30) with food and water available ad libitum.
Female Wistar rats of 17 days gestation were killed by cervical dislocation and the fetuses were removed from the uterus. Their brains were placed in ice-cold medium of Leibovitz (L15, Gibco, Fisher bioblock, France). Cortices were dissected and meninges were carefully removed. The cortical neurons were dissociated by trypsinization for 30 min at 37° C. (trypsin-EDTA, Gibco) in presence of 0.1 mg/ml DNAse I (Roche, France). The reaction was stopped by addition of Dulbecco's Modified Eagle Medium (DMEM; Gibco) with 10% of fetal bovine serum (FBS; Gibco). The suspension was triturated with a 10-ml pipette and using a needle syringe 21G and centrifuged at 350×g for 10 min at room temperature. The pellet of dissociated cells was resuspended in a medium consisting of Neurobasal (Gibco) supplemented with 2% B27 supplement (Gibco), 0.5 mM L-Glutamine (Gibco), an antibiotic-antimicotic mixture. Viable cells were counted in a Neubauer cytometer using the trypan blue exclusion test (Sigma). Cells were seeded at a density of 10000 cells per well in 96-well plate (Costar) precoated with poly-L-lysine. Test compound at different concentrations were added to the cultures. Donepezil (positive control) was tested at 250 nM.
After 72h (3 days) of plating, cultures were fixed with paraformaldehyde in PBS (4%, Sigma) for 30 min at 4° C. Then, cells were successively permeabilized with 0.1% Triton X100 for 30 min, saturated with PBS containing 3% of BSA and were incubated 1 h with anti-beta III tubulin antibody (Sigma) at 1/10 000 in PBS containing 0.5% of BSA. Cells were washed three times with PBS containing 0.5% of BSA, and they were incubated 1 h with goat anti-mouse antibody coupled with AF488 (Invitrogen A11001) diluted at 1/1000 in PBS containing 0.5% of BSA. Finally, nuclei were staining with DAPI 1 mg/ml at 1/1000 in PBS containing 0.5% of BSA. After rinsing with PBS, the plate was filmed and neurite networks were examined and analyzed using High-Content Screening (Celllnsight, Thermo Scientific). The average number of neurites per neuron and the average total length of neurites per neuron were the main parameters analyzed. Analysis of data was performed using analysis of variance (ANOVA). The Fisher's Protected Least Significant Difference test was used for multiple comparisons. A p value≤0.05 was considered significant. The software used is StatView 5.0 from SAS Institut.

C57BL/6J Mice = experiment: Head twitch response (HTR) experiments; type: in vivo, mouse
Protocol: Head twitch response (HTR) experiments. All HTR experiments were performed by Transpharmation Ltd, London, UK. C57BL/6J Mice (9-10 weeks old) were obtained and housed following an IACUC approved protocol. The mice were habituated in the test cage for at least 30 min, injected intraperitoneally with compound (injection volume 5 ml/kg), returned to the empty test cage, and filmed for 20 minutes. Each video is scored for the number of head-twitches by a trained observer blinded to treatment condition.

5-HT2A [3] = biological target: T1, 5-HT2A (Homo sapiens, UniProt P28223); experiment: Serotonin 5-HT2A in vitro cellular IPOne agonism assay; type: cell-based; parameters: host or cells: CHO-K1; conditions: CHO-K1 cells, IPOne HTRF, 60 min
T1 sequence (P28223 whole entry): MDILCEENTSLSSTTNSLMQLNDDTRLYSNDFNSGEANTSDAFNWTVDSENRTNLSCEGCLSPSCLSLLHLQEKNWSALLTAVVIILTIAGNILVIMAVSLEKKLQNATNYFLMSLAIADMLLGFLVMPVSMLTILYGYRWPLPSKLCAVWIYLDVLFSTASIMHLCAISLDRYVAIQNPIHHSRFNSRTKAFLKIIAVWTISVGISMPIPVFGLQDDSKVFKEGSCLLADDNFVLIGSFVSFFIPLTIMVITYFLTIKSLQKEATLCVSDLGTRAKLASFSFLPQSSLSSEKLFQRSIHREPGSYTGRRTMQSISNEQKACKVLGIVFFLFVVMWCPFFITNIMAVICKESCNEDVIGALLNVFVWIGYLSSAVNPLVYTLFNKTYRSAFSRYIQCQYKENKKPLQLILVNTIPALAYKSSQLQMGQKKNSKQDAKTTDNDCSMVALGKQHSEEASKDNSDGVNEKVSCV
Protocol: Serotonin 5-HT2A In Vitro Cellular IPOne Agonism Assay. The 5-HT2A IPOne HTRF assay was performed at Epics Therapeutics S.A. (Belgium, FAST-0505I) using conventional methods. Briefly, CHO-K1 cells expressing human recombinant 5-HT2A receptor grown to mid-log phase in culture media without antibiotics were detached with PBS-EDTA, centrifuged, and resuspended in medium without antibiotics buffer. 20,000 cells are distributed in a 96 well plate and incubated overnight at 37° C. with 5% CO2.
For agonist testing, the medium is removed and 20 μl of assay buffer plus 20 μl of test compound or reference agonist are added in each well. The plate is incubated for 60 min. at 37° C. with 5% CO2.
After addition of the lysis buffer containing IP1-d2 and anti-IP1 cryptate detection reagents, plates are incubated 1-hour at room temperature, and fluorescence ratios are measured according to the manufacturer specification, with the HTRF kit.

5-HT2A [4] = biological target: T1, 5-HT2A; experiment: Serotonin 5-HT2A in vitro radioligand binding competition assay; parameters: purchased Epics Therapeutics S.A. (Belgium) FAST-0505B; host or cells: membrane extracts; conditions: radiotracer [3H]-DOI, membrane extracts
Protocol: Serotonin 5-HT2A In Vitro Radioligand Binding Competition Assay. The 5-HT2A radioligand binding competition assay was performed at Epics Therapeutics S.A. (Belgium, FAST-0505B) using conventional methods. Briefly, competition binding is performed in duplicate in the wells of a 96 well plate (Master Block, Greiner, 786201) containing binding buffer (optimized for each receptor), membrane extracts (amount of protein/well optimized for each receptor), radiotracer [^3H]-DOI (final concentration optimized for each receptor) and test compound. Nonspecific binding is determined by co-incubation with 200-fold excess of cold competitor. The samples are incubated in a final volume of 0.1 ml at a temperature and for a duration optimized for each receptor and then filtered over filter plates. Filters are washed six times with 0.5 ml of ice-cold washing buffer (optimized for each receptor) and 50 μl of Microscint 20 (Packard) are added in each well. The plates are incubated 15 min on an orbital shaker and then counted with a TopCount™ for 1 min/well.

SMILES: CCN(CC)C(=O)[C@@H]1C=C2c3cccc4[nH]c(Br)c(c34)C[C@H]2N(C)C1 [BOL148]
- activation of the 5HT2A sensor assay (5HT2A sensor [1]): do not activate the 5HT2A sensor assay in agonist mode
- competition with 5-HT in the 5HT2A sensor assay (5HT2A sensor [2]): compete with 5HT binding to 5HT2A

SMILES: CN(C)CCc1c[nH]c2ccccc12 [DMT, N,N-dimethyltryptamine]
- activation of the 5HT2A sensor assay (5HT2A sensor [1]): activate the 5HT2A sensor assay in agonist mode

SMILES: COc1cc(CC(C)N)c(OC)cc1I (stereo not drawn) [DOI]
- activation of the 5HT2A sensor assay (5HT2A sensor [1]): activate the 5HT2A sensor assay in agonist mode

SMILES: COc1ccc2c3c([nH]c2n1)CCN(C)CC3 [Example 1, 2-methoxy-7-methyl-5,6,7,8,9,10-hexahydropyrido[3′,2′:4,5]pyrrolo[2,3-d]azepine]
- Increase in Neurite Length (rat cortical neurons): A
- Increase in Neurite Number (rat cortical neurons): A
- Number of head twitches (C57BL/6J Mice; intraperitoneal, 10 mg/kg, filmed for 20 minutes): A (10 head twitches or less at 10 mg/kg)
- EC50 (5-HT2A [3]): 0.101 to 1 µM
- IC50 (5-HT2A [4]): 1 to 10 µM

SMILES: COc1ccc2[nH]cc(CCN(C)C)c2c1 [Example 5-MeO-DMT]
- head-twitch response (HTR) (C57BL/6J Mice): produces a robust, dose-dependent head-twitch response
- activation of the 5HT2A sensor assay (5HT2A sensor [1]): activate the 5HT2A sensor assay in agonist mode

SMILES: CCN(CC)CCc1c[nH]c2cc(F)ccc12 [Example 6-F-DET]
- activation of the 5HT2A sensor assay (5HT2A sensor [1]): do not activate the 5HT2A sensor assay in agonist mode
- competition with 5-HT in the 5HT2A sensor assay (5HT2A sensor [2]): compete with 5HT binding to 5HT2A

SMILES: COc1ccc2c(CCN(C)C)c[nH]c2c1 [Example 6-MeO-DMT]
- head-twitch response (HTR) (C57BL/6J Mice): does not produce a HTR
- activation of the 5HT2A sensor assay (5HT2A sensor [1]): do not activate the 5HT2A sensor assay in agonist mode
- competition with 5-HT in the 5HT2A sensor assay (5HT2A sensor [2]): compete off 5-HT

SMILES: Cc1ccc2c3c([nH]c2n1)CCN(C1COC1)CC3 [Example 9, 2-methyl-7-(oxetan-3-yl)-5,6,7,8,9,10-hexahydropyrido[3′,2′:4,5]pyrrolo[2,3-d]azepine]
- Increase in Neurite Length (rat cortical neurons): B
- Increase in Neurite Number (rat cortical neurons): B
- EC50 (5-HT2A [3]): > 10 µM
- IC50 (5-HT2A [4]): > 10 µM

SMILES: Cc1ccc2c3c(n(C)c2n1)CCN(C1COC1)CC3 [Example 11, 2,10-dimethyl-7-(oxetan-3-yl)-5,6,7,8,9,10-hexahydropyrido[3′,2′:4,5]pyrrolo[2,3-d]azepine]
- Increase in Neurite Length (rat cortical neurons): B
- Increase in Neurite Number (rat cortical neurons): B
- EC50 (5-HT2A [3]): > 10 µM
- IC50 (5-HT2A [4]): > 10 µM

SMILES: Cc1ccc2c3c(n(C)c2n1)CCN(C)CC3 [Example 12, 2,7,10-trimethyl-5,6,7,8,9,10-hexahydropyrido[3′,2′:4,5]pyrrolo[2,3-d]azepine]
- Increase in Neurite Length (rat cortical neurons): B
- Increase in Neurite Number (rat cortical neurons): B
- EC50 (5-HT2A [3]): 0.101 to 1 µM
- IC50 (5-HT2A [4]): 1 to 10 µM

SMILES: O=C(c1ccc(F)cc1)C1CCN(CCn2c(=O)[nH]c3ccccc3c2=O)CC1 [Ketanserin]
- activation of the 5HT2A sensor assay (5HT2A sensor [1]): do not activate the 5HT2A sensor assay in agonist mode
- competition with 5-HT in the 5HT2A sensor assay (5HT2A sensor [2]): compete with 5HT binding to 5HT2A

SMILES: CNC(C)Cc1ccc2c(c1)OCO2 [L-MDMA]
- activation of the 5HT2A sensor assay (5HT2A sensor [1]): do not activate the 5HT2A sensor assay in agonist mode

SMILES: CCN(CC)C(=O)[C@@H]1C=C2c3cccc4[nH]cc(c34)C[C@H]2N(C)C1 [LSD]
- activation of the 5HT2A sensor assay (5HT2A sensor [1]): activate the 5HT2A sensor assay in agonist mode

SMILES: CN[C@H](C)Cc1ccc2c(c1)OCO2 [R-MDMA]
- activation of the 5HT2A sensor assay (5HT2A sensor [1]): do not activate the 5HT2A sensor assay in agonist mode
